Assay [1] has as its system HCT-116. Put plainly: Antiproliferative activity against human HCT116 cells assessed as reduction in cell viability after 48 hrs by MTT assay. The format is functional, cell-based. The settings on record: HCT-116, 48 h. On the technique in general: Formazan colour is commonly taken as a measure of viable cells.
In assay [2] the test system is A549. Put plainly: Antiproliferative activity against human A549 cells assessed as reduction in cell viability after 48 hrs by MTT assay. The format is functional, cell-based. To be noted: A549, 48 h.
Assay [3] deals with HT-29. Put plainly: Antiproliferative activity against human HT-29 cells assessed as reduction in cell viability after 48 hrs by MTT assay. The format is functional, cell-based. The settings on record: HT-29, 48 h.
In assay [4] the test system is HBL-100. Kind of assay: Antiproliferative activity against human HBL100 cells assessed as reduction in cell viability after 48 hrs by MTT assay. The format is functional, cell-based. To be noted: HBL-100, 48 h.
For assay [5], the system named is MCF7. Kind of assay: Antiproliferative activity against human MCF7 cells assessed as reduction in cell viability after 72 hrs by MTT assay. The format is functional, cell-based. The settings on record: MCF7, 72 h.
In assay [6] the test system is HT-29. Kind of assay: Antiproliferative activity against human HT-29 cells assessed as reduction in cell viability after 72 hrs by MTT assay. The settings on record: HT-29, 72 h. Format: functional, cell-based.
Assay [7] relates to MOLT-4. Kind of assay: Antiproliferative activity against human MOLT4 cells assessed as reduction in cell viability after 72 hrs by MTT assay. To be noted: MOLT-4, 72 h. The format is functional, cell-based.
Assay [8] concerns DU-145. Kind of assay: Antiproliferative activity against human DU145 cells assessed as reduction in cell viability after 48 hrs by MTT assay. Format: functional, cell-based. The settings on record: DU-145, 48 h.
For assay [9], the system named is MDA-MB-231. Put plainly: Antiproliferative activity against human MDA-MB-231 cells assessed as reduction in cell viability after 48 hrs by MTT assay. The format is functional, cell-based. The settings on record: MDA-MB-231, 48 h.
The test system of assay [10] is HEK293. Kind of assay: Cytotoxicity against HEK293 cells assessed as reduction in cell viability after 48 hrs by MTT assay. The settings on record: Homo sapiens, HEK293, 48 h. The format is cell-based.
The test system of assay [11] is MDA-MB-231. Put plainly: Antiproliferative activity against human MDA-MB-231 cells assessed as reduction in cell viability after 72 hrs by MTT assay. To be noted: MDA-MB-231, 72 h, read-out: IC50. Format: functional, cell-based.
The test system of assay [12] is U-87 MG. Kind of assay: Antiproliferative activity against human U87 cells assessed as reduction in cell viability after 72 hrs by MTT assay. The format is functional, cell-based, U-87MG ATCC.
The subject of assay [13] is IMR-32. Put plainly: Antiproliferative activity against human IMR32 cells assessed as reduction in cell viability after 72 hrs by MTT assay. The format is functional, cell-based. The settings on record: IMR-32, 72 h.
In assay [14] the test system is HeLa. Kind of assay: Antiproliferative activity against human HeLa cells assessed as reduction in cell viability after 72 hrs by MTT assay. Format: functional, cell-based.
The subject of assay [15] is Caco-2. Put plainly: Antiproliferative activity against human Caco2 cells assessed as reduction in cell viability after 72 hrs by MTT assay. To be noted: Caco-2, 72 h. The format is functional, cell-based.
In assay [16] the test system is K562. Put plainly: Antiproliferative activity against human K562 cells assessed as reduction in cell viability after 72 hrs by MTT assay. The format is functional, cell-based. The settings on record: K562, 72 h.
A short description of assay [17]: Cytotoxicity against dog MDCK1 cells assessed as reduction in cell viability after 72 hrs by MTT assay. Format: cell-based. The settings on record: Canis lupus familiaris, MDCK1, 72 h.
For assay [18], the system named is MDA-MB-231. Kind of assay: Antiproliferative activity against human MDA-MB-231 cells by MTT assay. The format is functional, cell-based.
For assay [19], the system named is HEK293. Kind of assay: Cytotoxicity against HEK293 cells by MTT assay. To be noted: Homo sapiens. The format is cell-based.
The test system of assay [20] is MCF7. Kind of assay: cells. Format: functional, cell-based. The settings on record: Homo sapiens.
Description: Antiproliferative activity against human MCF7 cells by MTT assay
In assay [21] the test system is A549. Put plainly: cells. Format: functional, cell-based. The settings on record: Homo sapiens.
Description: Antiproliferative activity against human A549 cells by MTT assay
In assay [22] the test system is MCF-10A. Put plainly: Cytotoxicity against human MCF10A cells by MTT assay. The format is cell-based.
Assay [23] relates to HT-29. Put plainly: Antiproliferative activity against human HT-29 cells by MTT assay. Format: functional, cell-based.
The test system of assay [24] is DU-145. Kind of assay: Antiproliferative activity against human DU145 cells by MTT assay. Format: functional, cell-based.
The subject of assay [25] is MV4-11. Kind of assay: Antiproliferative activity against human MV4-11 cells by MTT assay. The format is functional, cell-based.
Assay [26] deals with HL-60. Put plainly: Antiproliferative activity against human HL60 cells assessed as reduction in cell viability after 48 hrs by MTT assay. Format: functional, cell-based. The settings on record: HL-60, 48 h.
For assay [27], the system named is SW480. Kind of assay: Antiproliferative activity against human SW480 cells assessed as reduction in cell viability after 48 hrs by MTT assay. Format: functional, cell-based. The settings on record: SW480, 48 h.
The nature of assay [28]: Antiproliferative activity against human SMCC7721 cells assessed as reduction in cell viability after 48 hrs by MTT assay. Format: functional, cell-based.

Regarding `C[C@@H]1CC[C@@]2(OC1)O[C@H]1C[C@H]3[C@@H]4CC=C5C[C@@H](O)CC[C@]5(C)[C@H]4CC[C@]3(C)[C@H]1[C@@H]2C` [DISOGENIN], the IC50 in assay [1], in [2], in assay [3] and in assay [4] was 10.8 to 13.3 µM throughout.

For the compound `CC(C)(C)c1ccc(Cn2cc(CNC3=CC(=O)c4ccccc4C3=O)nn2)cc1`, the IC50 in assay [5], in assay [6] and in [7] was 6.8 to 31.7 µM in each case.

Turning to `O=C(c1cn(Cc2ccc(-c3ccc(Cl)cc3)cc2)nn1)c1c(-c2ccccc2)nc2ccccn12`, the IC50 was 0.51 to 3.98 µM in assay [1]; 0.51 to 3.98 µM in [2]; 0.51 to 3.98 µM in [8]; 0.51 to 3.98 µM in [9]; 91.2 µM in assay [10].

With `Cc1n[nH]c(=O)c2c1c1cc(F)ccc1n2Cc1cn(C2CCCCC2)nn1`, the IC50 in [11], in [12] and in assay [13] was 0.042 to 0.478 µM in each case.

Take `O=c1cc(Cn2cc(-c3ccccc3)nn2)c2cc(O)c(O)cc2o1`: the IC50 in assay [14] lay in the range of 9.7 to 81.9 µM; in assay [15], 9.7 to 81.9 µM; in assay [16] it was 9.7 to 81.9 µM; in [17], 36.7 to 46 µM.

Take `Cc1n[nH]c(=O)c2c1c1cc(F)ccc1n2Cc1cn(Cc2ccc(F)cc2)nn1`: the IC50 in assay [11], in assay [12] and in assay [13] was 0.042 to 0.478 µM throughout.

For the compound `COC(=O)c1ccc(-n2nc(N)c(C(=O)NCCNC(=O)c3nn(-c4ccc(C(=O)OC)cc4)nc3N)n2)cc1`, the IC50 in [18] was 12 µM; in [19], over 50 µM.

As to `C=CCC1CN2CCC1CC2[C@H](O)c1cc(-c2cn(-c3ccccc3)nn2)nc2ccc(OC)cc12` (stereo not given in full), the IC50 in [20], in assay [21], in assay [22], in assay [23], in assay [24] and in assay [25] was 0.53 to 6.4 µM each time.

Consider `C=CCC1CN2CCC1CC2[C@H](O)c1cc(-c2cn(-c3ccc(O)cc3)nn2)nc2ccc(OC)cc12` (stereo not given in full), for which the IC50 in assay [20], in assay [21], in assay [22], in assay [23], in assay [24] and in [25] was 0.53 to 14.6 µM each time.

As to `C=CCC1CN2CCC1CC2[C@H](O)c1ccnc2ccc(-c3cn(-c4ccccc4)nn3)cc12` (stereo not given in full), the IC50 in [20], in assay [21], in assay [22], in [23], in assay [24] and in [25] was 0.53 to 14.6 µM each time.

In the case of `CCCC(=O)OC[C@H]1O[C@@H](OC(COCc2cn([C@H]3c4cc5c(cc4[C@@H](c4cc(OC)c(O)c(OC)c4)[C@H]4C(=O)OC[C@@H]43)OCO5)nn2)COCc2cn([C@H]3c4cc5c(cc4[C@@H](c4cc(OC)c(O)c(OC)c4)[C@H]4C(=O)OC[C@@H]43)OCO5)nn2)[C@H](OC(=O)CCC)[C@@H](OC(=O)CCC)[C@@H]1OC(=O)CCC` (stereo not given in full), the IC50 in assay [2], in assay [26], in assay [27] and in assay [28] was 0.43 to 30.5 µM in each case.

As to `C[C@@H]1CC[C@@]2(OC1)O[C@H]1C[C@H]3[C@@H]4CC=C5C[C@@H](OCc6cn(-c7ccccc7[N+](=O)[O-])nn6)CC[C@]5(C)[C@H]4CC[C@]3(C)[C@H]1[C@@H]2C`, the half-inhibitory concentration (IC50) in [1], in assay [2], in assay [3] and in assay [4] was 5.16 to 9.44 µM each time.

The IC50 is the concentration needed to halve the response being measured.

For the origin of these results see ChEMBL document CHEMBL4342418, “1,2,3-Triazole-containing hybrids as potential anticancer agents: Current developments, action mechanisms and structure-activity relationships” (Eur J Med Chem, 2019).
